≈ marks a conversion by molar mass, not a printed value. Calls of active or inactive are those of the source. The calls are words filed in the database; no cut-off is given here.
Tests used:
L1210 = experiment: Cytotoxicity against mouse L1210 cells; type: cell-based
[1] = Cytotoxicity against african green monkey CV1 cells assessed as zone of diameter at 0.1 ug/ml; type: cell-based; settings: chlorocebus aethiops, cv-1
Human alphaherpesvirus 1 [2] = experiment: Antiviral activity against HSV1 in african green monkey CV1 cells at 0.01 ug/ml by plaque reduction method; type: functional, organism-based; settings: CV-1
[3] = test system: Vesicular stomatitis virus; experiment: Antiviral activity against VSV in BHK cells at 0.01 ug/ml by plaque reduction method; type: functional, organism-based
[4] = Cytotoxicity against african green monkey CV1 cells assessed as zone of diameter at 0.01 ug/ml; type: cell-based; settings: chlorocebus aethiops, cv-1
[5] = Cytotoxicity against BHK cells; type: cell-based, Mesocricetus auratus; settings: hamster
Human alphaherpesvirus 1 [6] = experiment: Antiviral activity against HSV1 in african green monkey CV1 cells at 0.1 ug/ml by plaque reduction method; type: functional, organism-based; settings: CV-1
Human alphaherpesvirus 1 [7] = experiment: Antiviral activity against HSV1 in african green monkey CV1 cells at 1 ug/ml by plaque reduction method; type: functional, organism-based; settings: CV-1

Row | Structure (SMILES) | IC50 (L1210) [ng/mL] | inhibition zone (IZ) [1] [mm] | Activity (Human alphaherpesvirus 1 [2]) | Activity [3] | inhibition zone (IZ) [4] [mm] | Activity [5] | Activity (Human alphaherpesvirus 1 [6]) | Activity [1] | Activity (Human alphaherpesvirus 1 [7])
1 | C=C1[C@@H](O)[C@@H]2O[C@]3(CC[C@H](CC[C@@H](C)[C@@H]4CC(C)=C[C@@]5(O[C@H](C[C@@](C)(O)C(=O)O)CC[C@H]5O)O4)O3)CC[C@H]2O[C@@H]1[C@@H](O)C[C@H](C)[C@H]1O[C@@]2(CC[C@H]1C)OCCC[C@H]2C | 3 (≈ 3.65 nM) | 0 | inactive | Active | 0 | Toxic |  |  | 
2 | C=C1[C@@H](O)[C@@H]2O[C@]3(CC[C@H](/C=C/[C@@H](C)[C@@H]4CC(C)=C[C@@]5(O[C@H](C[C@@](C)(O)C(=O)O)CC[C@H]5O)O4)O3)CC[C@H]2O[C@@H]1[C@@H](O)C[C@H](C)[C@H]1O[C@@]2(CCCCO2)CC[C@H]1C [OKADAIC ACID] | 5 (≈ 6.21 nM) | 22 |  |  | 0 |  |  |  | 
3 | C=C1[C@@H](O)[C@@H]2O[C@]3(CC[C@H](/C=C/[C@@H](C)[C@@H]4CC(C)=C[C@@]5(O[C@H](C[C@@](C)(O)C(=O)O)CC[C@H]5O)O4)O3)CC[C@H]2O[C@@H]1[C@@H](O)C[C@H](C)[C@H]1O[C@@]2(CC[C@H]1C)OCCC[C@H]2C [DINOPHYSISTOXIN 1] | 2 (≈ 2.44 nM) |  | inactive |  | 0 | Toxic | Active | Toxic | Active

— ChEMBL document CHEMBL1159251, “A new polyether acid from a cold water marine sponge, a Phakellia species” (J Nat Prod, 1995)
